From patent US20220288048A1, “PIMAVANSERIN FOR TREATING SCHIZOPHRENIA OR FOR TREATING PSYCHOSIS SECONDARY TO NEURODEGENERATIVE DISORDERS OR DEPRESSIVE DISORDER” (ACADIA Pharmaceuticals Inc., priority 2019, published 2022)
Entries after “also recorded” stand apart in the source; their conditions may differ.

Tested on: scPCP+ARS(2h) treated male C57BL/6J mice
Assay: 10-min social interaction test in scPCP-treated mice given 2 h acute restraint stress (treatment-resistant model)
Format: in vivo
Settings: risperidone 0.2, olanzapine 1, aripiprazole 1 or pimavanserin 3 mg/kg ip alone, 45 min prior to test
Protocol: Briefly, mice were habituated to the test arena (i.e., the NOR box) for 30 minutes prior to the test day. Pairs of mice, unfamiliar to each other, received either the same treatment (e.g., vehicle and vehicle; N=10 pairs) or different treatments (e.g., vehicle; N=10 and phencyclidine (PCP) 10 mg/kg; N=10). After washout, they were placed in the test arena together for 10 minutes. A heavy object made of Plexiglas or metal was placed in the center of the test arena to quantify the time and nature of interaction of the test animals with an unfamiliar object or an unfamiliar animal. After the 10 min test phase, the object and the arena were cleaned with 70% ethanol to remove any olfactory trails. Behavior was recorded on video for subsequent blind scoring.
The following four behaviors were scored for each animal: • a) Sniffing: A normal mouse engages in sniffing the con-specific mouse's body, including the anogenital area • b) Following: A normal mouse pursues a con-specific mouse around the arena • c) Avoiding: A normal mouse avoids the con-specific mouse and move away from a pursuing mouse if approached • d) Object Exploration: A normal mouse explores the object that is placed in the center of the test arena.
Acute restraint stress (ARS) protocol: Mice were assigned to one of two groups: either the control group (non-stress) or the stress group. Generally, mice of the stress group were restrained in well-ventilated 50 mL tubes. After the restraint period of 1 or 2 hours, the mice were transferred into a clean animal housing cage for 1-hour interval and thereafter went through the first social interaction test (different mice are used to test different groups).
Treatment resistant animal model: To establish this model, Acute restraint stress (ARS) was added to scPCP treatment. Two groups (vehicle+ARS; scPCP+ARS) and their controls (vehicle+saline; scPCP+saline) were used. ARS was applied for 1 or 2 hours and tested on SI 1 hour post-ARS.
The behavioral assay, ARS protocol, and scPCP-treatment as described in Example 2 were used. To test the effect of atypical APD and pimavanserin, alone or as con-administration, in scPCP-treated mice (N=10 pairs of mice per group) given 2 h ARS, risperidone (“Risp”) was administered as 0.2 mg/kg or 0.4 mg/kg ip; olanzapine (“Olan”) as 1.0 mg/kg ip; aripiprazole (“Aripi”) as 1.0 mg/kg ip; and pimavanserin (“Pim”) as 3 mg/kg ip to scPCP+ARS(2h) treated male C57BL/6J mice 45 minutes prior to the commencement of the social interaction task in the 10 min social interaction test. Plasma levels of risperidone were measured using a Triple Quad 6500+ mass spectrometer.

Compound: CC(C)COc1ccc(CNC(=O)N(Cc2ccc(F)cc2)C2CCN(C)CC2)cc1 [Pimavanserin, N-(4-Fluorophenylmethyl)-N-(1-methylpiperidin-4-yl)-N′-(4-(2-methylpropyloxy)phenylmethyl)carbamide]
- Able to restore sniffing or decrease avoidance (SI deficit), drug alone: Neither; also recorded: ineffective
